Experimental data published in ChEMBL document CHEMBL1143465, “New fluorinated pyrrolidine and azetidine amides as dipeptidyl peptidase IV inhibitors” (Bioorg Med Chem Lett, 2005).

system: Mus musculus; test: Percent inhibition of blood glucose concentration measured 30 min after 10 mg/kg dosing to fasted mice followed 15 min later by 1 g/kg oral glucose load; format: functional

Point of comparison: `N[C@H](C(=O)N1CC(F)C1)C1CCCCC1`, inhibition in vivo at 10 mg/kg 70%. Against it:
- N[C@H](C(=O)N1CCC(F)(F)C1)C1CCCCC1 — higher, 78%
- N[C@H](C(=O)N1CC(F)(F)C(F)(F)C1)C1CCCCC1 — lower, 59%
- N[C@H](C(=O)N1CC(F)C(F)C1)C1CCCCC1 (stereo partly specified) — lower, 60%
- N[C@H](C(=O)N1CC(F)(F)C1)C1CCCCC1 — higher, 109%
- N[C@H](C(=O)N1CCCC1)C1CCCCC1 — lower, 69%
